Assay results reported in patent US20170081324A1 (priority 2015, published 2017).
Where two headings read alike, the source gives them in different places.

How the values were obtained:
[1] = test system: influenza A virus (IAV) A/Aichi/2/68 (H3N2) on MDCK cells; test: microbe, parasite or virus in culture; type: cell-based, influenza A virus A/Aichi/2/68 (H3N2); conditions: 48 h
[2] = molecular target: whole RNP complex (viral RNPs) of IAV strain A/PR/8/34 (Influenza A virus, UniProt P03428); test: biochemical
Chain of whole RNP complex (viral RNPs) of IAV strain A/PR/8/34 (P03428 whole entry, looked up, one chain of several): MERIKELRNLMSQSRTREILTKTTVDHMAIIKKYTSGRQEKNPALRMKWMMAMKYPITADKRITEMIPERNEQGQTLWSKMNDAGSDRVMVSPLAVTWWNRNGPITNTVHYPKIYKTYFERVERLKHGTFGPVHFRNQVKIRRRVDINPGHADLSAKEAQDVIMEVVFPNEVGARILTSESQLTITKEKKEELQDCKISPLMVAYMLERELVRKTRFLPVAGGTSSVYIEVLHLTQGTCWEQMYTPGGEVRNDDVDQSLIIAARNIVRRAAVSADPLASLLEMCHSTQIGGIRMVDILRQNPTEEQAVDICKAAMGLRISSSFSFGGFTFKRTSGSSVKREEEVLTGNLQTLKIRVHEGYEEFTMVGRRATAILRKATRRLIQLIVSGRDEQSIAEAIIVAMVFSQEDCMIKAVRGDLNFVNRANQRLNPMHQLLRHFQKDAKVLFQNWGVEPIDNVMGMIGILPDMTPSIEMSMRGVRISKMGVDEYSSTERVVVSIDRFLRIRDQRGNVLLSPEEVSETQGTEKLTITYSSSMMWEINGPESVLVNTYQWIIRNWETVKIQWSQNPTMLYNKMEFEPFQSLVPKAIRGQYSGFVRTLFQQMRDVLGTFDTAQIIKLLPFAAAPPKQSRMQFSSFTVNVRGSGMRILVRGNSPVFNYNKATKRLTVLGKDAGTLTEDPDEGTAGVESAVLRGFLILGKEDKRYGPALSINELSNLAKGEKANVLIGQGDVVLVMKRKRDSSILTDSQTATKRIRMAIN

Row | Compound | IC50 ([1]; read-out: CPE) [µM] | IC50 ([1]; read-out: CPE IC50) [µM] | IC50 [2] [µM]
1 | COC(=O)CC(Nc1nc(-c2ccc3n[nH]c(=O)n3c2)ncc1F)C1CC1 (centres unmarked) | > 50 | – | –
2 | O=c1[nH]nc2ccc(-c3ncc(F)c(NCCO)n3)cn12 | > 50 | – | –
3 | COC(=O)[C@@H](Nc1nc(-c2ccc3n[nH]c(=O)n3c2)ncc1F)C(C)C | – | 38.5 | –
4 | O=C(N[C@@H]1CCC[C@H](Nc2nc(-c3ccc4n[nH]c(=O)n4c3)ncc2F)C1)N1CCCC1 | – | 9.1 | –
5 | COC(=O)C[C@@H](Nc1nc(-c2ccc3n[nH]c(=O)n3c2)ncc1F)C(C)C | > 50 | – | –
6 | O=c1[nH]nc2ccc(-c3ncc(F)c(NC4CCCCC4)n3)cn12 | > 50 | – | –
7 | CC(C)[C@@H](CC(=O)O)Nc1nc(-c2ccc3n[nH]c(=O)n3c2)ncc1F | > 50 | – | > 33.3
8 | O=C(O)[C@@H]1CCC[C@H](Nc2nc(-c3ccc4n[nH]c(=O)n4c3)ncc2F)C1 | > 50 | – | 14.3
9 | O=C(O)CC(Nc1nc(-c2ccc3n[nH]c(=O)n3c2)ncc1F)C1CC1 (centres unmarked) | > 50 | – | > 25
10 | CNc1nc(-c2ccc3n[nH]c(=O)n3c2)ncc1F | > 50 | – | > 33.3
11 | CC(C)Nc1nc(-c2ccc3n[nH]c(=O)n3c2)ncc1F | > 50 | – | 44.9
12 | COC(=O)CCCCCNc1nc(-c2ccc3n[nH]c(=O)n3c2)ncc1F | – | 39.3 | > 33.3
13 | COC(=O)[C@@H]1CCC[C@H](Nc2nc(-c3ccc4n[nH]c(=O)n4c3)ncc2F)C1 | > 50 | – | > 33.3
14 | O=c1[nH]nc2ccc(-c3ncc(F)c(NCC4CC4)n3)cn12 | > 50 | – | > 33.3
15 | CC(C)[C@H](Nc1nc(-c2ccc3n[nH]c(=O)n3c2)ncc1F)C(=O)O | > 50 | – | > 33.3
16 | CC(C)C(C)Nc1nc(-c2ccc3n[nH]c(=O)n3c2)ncc1F (centres unmarked) | > 50 | – | 73.2
17 | O=C(O)CCCCCNc1nc(-c2ccc3n[nH]c(=O)n3c2)ncc1F | – | > 100 | 149
18 | O=C(N[C@@H]1CCC[C@H](Nc2nc(-c3cccc4n[nH]c(=O)n34)ncc2F)C1)N1CCCC1 [reference compound] | > 50 | – | –
